The test system of one assay is thioredoxin reductase. Nature of the assay: Thioredoxin reductase activity in treated Caki-1 cells. It is filed as cell-based, human.
For another assay, the system named is MAPKAPK-3. Nature of the assay: Immunoblotting of MAPKAPK-3 in Auranofin treated Caki-1 cells. The settings on record: Caki-1, Western blot (Fig. S46). Type of assay: cell-based, human. For orientation: In western blotting, separated proteins are transferred to a membrane and probed.
For assay [1], the system named is TrxR in human breast MCF-7 cancer cells. Particulars: MCF-7 cells, 4 μM; cited from earlier work.
The test system of assay [2] is TrxR in human ovarian A2780 cancer cells. Particulars: 10 μM; cited from earlier work.
Assay [3] relates to human renal Caki-1 cancer cell lines. Nature of the assay: XTT cytotoxicity assay, Caki-1. Type of assay: cell-based. Particulars: read-out: IC50 Caki-1, 72 h incubation. (Formazan colour is commonly taken as a measure of viable cells.)
Assay [4] concerns non-tumorigenic human embryonic kidney cell lines HEK-293T. Nature of the assay: XTT cytotoxicity assay, HEK-293T. Type of assay: cell-based. The settings on record: read-out: IC50 HEK-293T, 72 h incubation.
The test system of a further assay is plasmid (pBR322) DNA. Nature of the assay: Electrophoresis mobility shift assay. It is filed as binding. The settings on record: pBR322, metal/DNAbp ratios 0.25-2.0, 37 °C, 20 h.
Assay [5] has as its system human renal proximal tubular cells (RPTC). Nature of the assay: XTT cytotoxicity assay, RPTC. It is filed as cell-based. The settings on record: read-out: IC50 RPTC, 72 h incubation.

For `CC(=O)OC[C@H]1O[C@@H]([S-])[C@H](OC(C)=O)[C@@H](OC(C)=O)[C@@H]1OC(C)=O.CCP(CC)CC.[Au+]` [Auranofin], the “inhibition of thioredoxin reductase activity” value with thioredoxin reductase (5 μM, 5 hour incubation) was determined as 74.1%. Moreover, the IC50 with thioredoxin reductase (read-out: IC50 thioredoxin reductase, after 12 hours) came out at 0.61 µM. The “expression of MAPKAPK-3” value in the assay with MAPKAPK-3 is reported as “failed to down-regulate MAKPAPK-3”. The “inhibition of total TrxR activity” value in assay [1] is reported as 18%; in assay [2], 30%.
For the compound `N.N.[Cl][Pt][Cl]` [Cisplatin], the IC50 in assay [3] is 29 ± 4.11 µM; in assay [4], 3.27 ± 0.13 µM. Further, the “effect on electrophoretic mobility of plasmid forms” value in the assay with plasmid (pBR322) DNA is “decreased mobility of the CCC form and increased mobility of the OC form”.
Turning to `COc1ccc(C[C]2([Ti+2][C]3(Cc4ccc(OC)cc4)C=CC=C3)C=CC=C2)cc1.[Cl-].[Cl-]` [Titanocene Y], in assay [3], the IC50 amounted to 29.4 ± 4.18 µM.
As to [Au(Hmba)(PPh3)] [compound 4], the figures for the IC50 in assay [3], in assay [4] and in assay [5] were 2.76 ± 0.35 µM, 1.11 ± 0.65 µM and 3.87 ± 0.15 µM, respectively. The “effect on electrophoretic mobility of plasmid forms” value in the assay on plasmid (pBR322) DNA was “did not affect the mobility of the faster-running supercoiled form”.

The term IC50 denotes the concentration that gives 50% inhibition.

The values above are taken from paper PMC4869729 (Chemical Science, 2015).
